Columns and labels:
human calcium receptor = molecular target: T1, human calcium receptor (Homo sapiens, UniProt P41180, R990G); test: increases in [Ca^2+ ]i in HEK-293 cells expressing the human calcium receptor (fura-2 loaded HEK 293/pHuPCaR4.0 cells), % activity; type: cell-based
T1 construct: expressed in transfected cells; host or cells: HEK 293
T1 sequence (P41180 20-1078 R990G): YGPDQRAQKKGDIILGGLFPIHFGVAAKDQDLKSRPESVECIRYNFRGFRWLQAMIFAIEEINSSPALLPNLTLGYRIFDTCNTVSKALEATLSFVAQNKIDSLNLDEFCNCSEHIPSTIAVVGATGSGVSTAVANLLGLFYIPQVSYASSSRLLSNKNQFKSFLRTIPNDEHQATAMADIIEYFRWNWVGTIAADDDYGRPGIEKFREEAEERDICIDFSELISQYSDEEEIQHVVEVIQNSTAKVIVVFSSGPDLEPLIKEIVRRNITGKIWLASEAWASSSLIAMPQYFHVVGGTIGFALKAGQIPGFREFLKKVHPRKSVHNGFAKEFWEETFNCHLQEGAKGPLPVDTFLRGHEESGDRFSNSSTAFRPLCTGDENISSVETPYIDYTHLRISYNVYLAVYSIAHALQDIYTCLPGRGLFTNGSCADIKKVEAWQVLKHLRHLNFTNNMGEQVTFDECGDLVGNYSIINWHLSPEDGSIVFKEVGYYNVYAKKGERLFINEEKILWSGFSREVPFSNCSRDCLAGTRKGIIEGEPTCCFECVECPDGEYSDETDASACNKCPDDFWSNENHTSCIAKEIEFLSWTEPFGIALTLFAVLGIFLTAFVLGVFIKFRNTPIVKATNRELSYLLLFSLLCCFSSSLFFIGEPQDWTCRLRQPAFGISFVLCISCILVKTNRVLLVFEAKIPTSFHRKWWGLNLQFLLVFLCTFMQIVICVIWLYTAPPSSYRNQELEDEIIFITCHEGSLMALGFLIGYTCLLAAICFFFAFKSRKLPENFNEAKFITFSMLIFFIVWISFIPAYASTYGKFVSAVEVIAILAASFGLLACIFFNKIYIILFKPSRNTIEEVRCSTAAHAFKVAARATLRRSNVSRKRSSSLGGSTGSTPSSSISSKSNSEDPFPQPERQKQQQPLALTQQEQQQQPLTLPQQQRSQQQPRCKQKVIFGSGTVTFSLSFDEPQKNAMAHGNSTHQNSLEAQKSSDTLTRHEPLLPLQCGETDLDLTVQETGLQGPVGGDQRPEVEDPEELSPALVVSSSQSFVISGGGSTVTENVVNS

[1] = test system: Parathyroid Cell Calcium Receptor; test: EC50 in parathyroid cells or HEK 293/pHuPCaR4.0 cells loaded with fura-2; type: cell-based, calves and humans; conditions: parathyroid cells or HEK 293/pHuPCaR4.0, fura-2; cell type not given per value
Method: This section describes procedures used to obtain parathyroid cells from calves and humans, and to use the parathyroid cells to measure calcium receptor activity.
Human parathyroid glands, were obtained from patients undergoing surgical removal of parathyroid tissue for primary or uremic hyperparathyroidism (uremic HPT), and were treated similarly to bovine tissue.
Glands were trimmed of excess fat and connective tissue and then minced with fine scissors into cubes approximately 2-3 mm on a side. Dissociated parathyroid cells were prepared by collagenase digestion and then purified by centrifugation in Percoll buffer.
Primary culture also has the advantage that cells can be labeled with isotopes to near isotopic equilibrium, as is necessary for studies involving measurements of inositol phosphate metabolism.
ITS+ is a premixed solution containing insulin, transferrin, selenium, and bovine serum albumin (BSA)-linolenic acid (Collaborative Research, Bedford, Mass.). The cells were then transferred to plastic flasks (75 or 150 cm^2; Falcon) and incubated overnight at 37° C. in a humid atmosphere of 5% CO2. No serum is added to these overnight cultures, since its presence allows the cells to attach to the plastic, undergo proliferation, and dedifferentiate.
The cells were then pelleted, resuspended in the same buffer, but lacking the ester, and incubated a further 15 minutes at 37° C. The cells were subsequently washed twice with PCB containing 0.5 mM CaCl2 and 0.5% BSA and maintained at room temperature (about 20° C.). Immediately before use, the cells were diluted five-fold with prewarmed 0.5 mM CaCl2 -PCB to obtain a final BSA concentration of 0.1%. The concentration of cells in the cuvette used for fluorescence recording was 1-2×10^6 /ml.
The fluorescence of indicator-loaded cells was measured at 37° C. in a spectrofluorimeter (Biomedical Instrumentation Group, University of Pennsylvania, Philadelphia, Pa.) equipped with a thermostated cuvette holder and magnetic stirrer using excitation and emission wavelengths of 340 and 510 nm, respectively. […] To correct the calibration for dye leakage, cells were placed in the cuvette and stirred at 37° C. for 2-3 minutes. The cell suspension was then removed, the cells pelleted, and the supernatant returned to a clean cuvette. […] This estimate was subtracted from the apparent Fmin.
HEK 293 cells transfected with pHuPCaR4.0 were loaded with fura-2 by incubating the cells in Dulbecco's modified Eagle's media buffered with 20 mM HEPES containing about 5 μM […] for one hour at room temperature. Cell were then rinsed with Hank's balanced salt solution buffered with 20 mM HEPES containing 1 mM CaCl2 and 1 mM MgCl2. Compounds to be tested were then added to the cells and fluorescence was measured (excitation and emission wavelengths of 340 and 510 nm, respectively).

[2] = test system: human parathyroid cell calcium receptor; test: stimulation of calcium-activated chloride currents in Xenopus oocytes injected with calcium receptor cRNA; type: cell-based; conditions: calcium-activated chloride current
Method: Representative cDNA inserts for both size classes were subcloned into the plasmid vector pBluescript SK. Linearization followed by in vitro transcription using T7 RNA polymerase produced cRNA transcripts. The cRNA transcripts were injected into Xenopus oocytes (150 ng/μl RNA; 50 nl/oocyte) for functional analysis. Following incubation periods of 2-4 days, the oocytes were assayed for the presence of functional calcium receptors. Both clone types gave rise to functional calcium receptors as assessed by the stimulation of calcium-activated chloride currents upon addition of appropriate calcium receptor agonists. […] Thus, both clones encode a functional, human parathyroid cell calcium receptor.
In addition, pHuPCaR4.0 encodes glutamine (Gln) at aa#925 and glycine (Gly) at position 990 whereas pHuPCaR5.2 encodes arg (Arg) at both equivalent positions. The human CaR gene encodes for Gln and Arg, respectively, at these positions. The difference between the pHuPCaR4.0 cDNA compared to human DNA appears to represent a true sequence polymorphism within the human population while the single base change in pHuPCaR5.2 probably reflects a mutation which occurred during its cloning. […] However, it is possible that these two receptor isoforms are functionally and/or pharmacologically distinct.

[3] = test system: HuPCaR 5.2 calcium receptor; test: fluorescence ([Ca^2+ ]i) in HEK 293 cells transfected with Cep4B containing the HuPCaR 5.2 insert; type: cell-based, human; conditions: Ca^2+ 10 mM, Mg^2+ 20 mM; 37° C.
Method: Clonal cell lines that stably express the two human and the bovine calcium receptors have been isolated. Calcium receptor cDNAs were subcloned in two different, commercially available expression vectors; pMSG (obtained from Pharmacia) and Cep4B (obtained from Invitrogen). The first vector contains the selectable marker gene for xanthine-guanine phosphoribosyltransferase (gpt) allowing stably transfected cells to overcome the blockade of the purine biosynthetic pathway imposed by addition of 2 μg/ml aminopterin and 25 μg/ml mycophenolic acid. The second vector encodes a gene conferring resistance to the antibiotic hygromycin (used at 200 μg/ml). […]
Cells obtained from the pool of hygromycin selected HEK 293 cells transfected with Cep4B containing the HuPCaR 5.2 insert were plated on collagen coated Aklar squares which had been placed into individual wells of 12-well tissue culture plates. […] Measurements of fluorescence in response to calcium receptor agonists were performed at 37° C. in a spectrofluorimeter using excitation and emission wavelengths of 340 and 510 nm, respectively. For signal calibration, Fmax was determined after addition of ionomycin (40 μM) and the apparent Fmin was determined by addition of 0.3 M EGTA, 2.5 M Tris-HCl; pH 10.

calcium receptor = conditions: cited from earlier work
human subjects = test: pharmacological activity in human subjects after oral doses; type: in vivo; conditions: 10-400 mg oral doses
Description: Proper dosing can also be carried out using standard techniques. […] Thus, the glucuronide conjugate of 17Q may be exerting some beneficial effect.

In the case of `COc1ccc([C@@H](C)N[C@H](C)c2cccc3ccccc23)cc1Cl` [Compound 17X, (R,R)-N-(1-Ethyl-4'-methoxy-3'-chlorophenyl)-1-(1-naphthylethyl) amine], the “% activity” value (human calcium receptor; 33 ng/mL) is reported as 93%, the “% activity” value (human calcium receptor; 330 ng/mL) is reported as 105% and the EC50 [1] is reported as 20 nM.
In the case of `COc1ccc(CCCN[C@H](C)c2cccc(OC)c2)cc1` [Compound 20I], the “% activity” value (human calcium receptor; 33 ng/mL) is reported as 52%, the “% activity” value (human calcium receptor; 330 ng/mL) is reported as 87% and the EC50 [1] is reported as greater than 1000 nM.
For `COc1cccc([C@@H](C)NCCCc2ccc(OC)c(OC)c2)c1` [Compound 20J], the “% activity” value (human calcium receptor; 33 ng/mL) was 48%, the “% activity” value (human calcium receptor; 330 ng/mL) was 80% and the EC50 [1] was greater than 3000 nM.
With `COc1cccc([C@@H](C)N[C@H](C)CCc2ccccc2)c1` [Compound 21D, (R,R)-N-(4-phenyl-2-butyl)-1-(3-methoxyphenyl)ethylamine] the “% activity” value (human calcium receptor; 33 ng/mL) was 75%, the “% activity” value (human calcium receptor; 330 ng/mL) was 104% and the EC50 [1] was 3000 nM.
In the case of `C[C@H](CCc1ccccc1)N[C@H](C)c1cccc2ccccc12` [Compound 21F, (R,R)-N-(4-phenyl-2-butyl)-1-(1-naphthyl)etbylamine], the “% activity” value (human calcium receptor; 33 ng/mL) is reported as 85%, the “% activity” value (human calcium receptor; 330 ng/mL) is reported as 109% and the EC50 [1] is reported as 380 nM.
For `C[C@@H](CCc1ccccc1)N[C@H](C)c1cccc2ccccc12` [Compound 21G], the “% activity” value (human calcium receptor; 33 ng/mL) was 63%, the “% activity” value (human calcium receptor; 330 ng/mL) was 88% and the EC50 [1] was 1100 nM.
For `COc1cccc([C@@H](C)NCCCc2ccccc2)c1` [NPS R-467], the “activation of oocyte-expressed calcium receptor” value [2] is listed as “activated the oocyte-expressed receptor at about the same concentrations known to be effective for the native parathyroid cell receptor”, the “increases in [Ca^2+ ]i” value [3] is listed as “Robust increases in [Ca^2+ ]i” and the “binding site on the calcium receptor” value (calcium receptor) is listed as “binds to the calcium receptor at a different site (i.e., an allosteric site) than extracellular calcium”.
With `COc1cccc([C@@H](C)NCCCc2ccccc2Cl)c1` [NPS R-568, reference compound] the “% activity” value (human calcium receptor; 33 ng/mL) was 69%, the “% activity” value (human calcium receptor; 330 ng/mL) was 95% and the EC50 [1] was 600 nM. The “activation of oocyte-expressed calcium receptor” value [2] was “activated the oocyte-expressed receptor at about the same concentrations known to be effective for the native parathyroid cell receptor” and the “pharmacological activity in human subjects” value (human subjects) was “showed pharmacological activity in human subjects”.

Source: patent US6211244A, “Calcium receptor-active compounds” (priority 1995, dated 2001)
